Patent US10781204B2, “TYK2 inhibitors and uses thereof” (Nimbus Lakshmi, Inc., priority 2015, dated 2020)

Legend:
JAK2 = JAK2 (Homo sapiens (Human), UniProt O60674); test: JAK2 radioactive kinase assay; assay type: biochemical; conditions: ATP 10 μM
How it was run: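 Radiometric assay in Hepes pH 7.5, MgCl2, EGTA, Brij35, BSA, DTT, 1% DMSO, with 10 μM [33P]ATP, 120 min at room temp; P81 paper capture and counting. […]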

[1] = test system: JAK2-pSTAT5 (GM-CSF induced pSTAT5); test: GM-CSF induced pSTAT5 in human PBMC; assay type: cell-based; conditions: 5 ng/mL GM-CSF
How it was run: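 Thawed human PBMC, 200,000 per well in serum-containing medium, were preincubated 1 hr at 37 C with compound in 0.1% DMSO. GM-CSF at 5 ng/mL final was added for 20 minutes, then pSTAT5 and total STAT5 in lysates were measured by MSD immunoassay.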

TYK2 = TYK2 (Homo sapiens (Human), UniProt P29597); test: Tyk2 radioactive kinase assay; assay type: biochemical; conditions: ATP 10 μM
How it was run: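 Recombinant human TYK2 (Invitrogen) was mixed with 20 μM peptide substrate in a buffer of 20 mM Hepes pH 7.5, 10 mM MgCl2, 1 mM EGTA, 0.02% Brij35, 0.02 mg/mL BSA, 0.1 mM […], 2 mM DTT and 1% DMSO, and compounds in DMSO were added. Adding ^33P-ATP (10 μM ATP) started the reaction, which ran 120 min at room temperature. Mixtures were then spotted onto P81 ion-exchange paper, washed thoroughly in 0.75% phosphoric acid, and counted for radioactivity.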

[2] = test system: Tyk2-pSTAT4 (IL-12 induced pSTAT4); test: IL-12 induced pSTAT4 in human PBMC; assay type: cell-based; conditions: 1.7 ng/mL IL-12, 30 minutes
How it was run: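 Thawed human PBMC (200,000 cells/well, serum-containing medium) preincubated with compound 1 hr at 37 C, 0.1% DMSO final. Stimulated with 1.7 ng/mL IL-12 (final) for 30 minutes; pSTAT4 and total STAT4 in lysates measured by MSD immunoassay.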

Sequence of TYK2 (P29597 whole entry): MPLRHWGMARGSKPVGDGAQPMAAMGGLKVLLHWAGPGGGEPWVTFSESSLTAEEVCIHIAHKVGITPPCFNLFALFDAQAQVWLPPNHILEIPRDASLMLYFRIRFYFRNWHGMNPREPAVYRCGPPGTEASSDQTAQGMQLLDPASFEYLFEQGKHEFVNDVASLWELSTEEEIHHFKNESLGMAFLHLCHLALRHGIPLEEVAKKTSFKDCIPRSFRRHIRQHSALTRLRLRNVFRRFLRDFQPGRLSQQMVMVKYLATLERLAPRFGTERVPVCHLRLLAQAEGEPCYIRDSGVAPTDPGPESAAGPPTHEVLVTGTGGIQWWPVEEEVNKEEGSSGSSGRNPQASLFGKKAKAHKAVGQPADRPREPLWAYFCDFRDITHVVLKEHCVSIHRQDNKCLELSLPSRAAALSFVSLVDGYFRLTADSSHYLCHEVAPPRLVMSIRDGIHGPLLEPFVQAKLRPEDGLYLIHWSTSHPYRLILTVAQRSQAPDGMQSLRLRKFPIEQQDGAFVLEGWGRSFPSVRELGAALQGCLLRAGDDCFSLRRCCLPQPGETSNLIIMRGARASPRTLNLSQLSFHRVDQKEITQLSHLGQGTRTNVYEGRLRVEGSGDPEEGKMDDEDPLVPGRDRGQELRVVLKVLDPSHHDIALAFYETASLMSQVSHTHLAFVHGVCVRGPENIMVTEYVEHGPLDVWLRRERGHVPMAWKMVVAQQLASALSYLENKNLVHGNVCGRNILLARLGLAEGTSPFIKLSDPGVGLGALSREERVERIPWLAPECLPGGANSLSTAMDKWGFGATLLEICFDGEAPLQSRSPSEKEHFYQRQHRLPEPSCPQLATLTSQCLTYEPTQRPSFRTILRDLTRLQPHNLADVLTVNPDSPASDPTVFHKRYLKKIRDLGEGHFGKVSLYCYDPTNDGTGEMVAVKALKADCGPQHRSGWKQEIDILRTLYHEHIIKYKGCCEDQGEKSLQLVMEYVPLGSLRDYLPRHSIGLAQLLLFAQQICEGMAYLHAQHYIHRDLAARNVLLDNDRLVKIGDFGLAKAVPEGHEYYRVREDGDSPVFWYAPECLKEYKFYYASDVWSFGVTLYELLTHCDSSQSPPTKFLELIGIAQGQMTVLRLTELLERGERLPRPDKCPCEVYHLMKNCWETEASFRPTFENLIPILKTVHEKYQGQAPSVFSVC
Sequence of JAK2 (O60674 whole entry): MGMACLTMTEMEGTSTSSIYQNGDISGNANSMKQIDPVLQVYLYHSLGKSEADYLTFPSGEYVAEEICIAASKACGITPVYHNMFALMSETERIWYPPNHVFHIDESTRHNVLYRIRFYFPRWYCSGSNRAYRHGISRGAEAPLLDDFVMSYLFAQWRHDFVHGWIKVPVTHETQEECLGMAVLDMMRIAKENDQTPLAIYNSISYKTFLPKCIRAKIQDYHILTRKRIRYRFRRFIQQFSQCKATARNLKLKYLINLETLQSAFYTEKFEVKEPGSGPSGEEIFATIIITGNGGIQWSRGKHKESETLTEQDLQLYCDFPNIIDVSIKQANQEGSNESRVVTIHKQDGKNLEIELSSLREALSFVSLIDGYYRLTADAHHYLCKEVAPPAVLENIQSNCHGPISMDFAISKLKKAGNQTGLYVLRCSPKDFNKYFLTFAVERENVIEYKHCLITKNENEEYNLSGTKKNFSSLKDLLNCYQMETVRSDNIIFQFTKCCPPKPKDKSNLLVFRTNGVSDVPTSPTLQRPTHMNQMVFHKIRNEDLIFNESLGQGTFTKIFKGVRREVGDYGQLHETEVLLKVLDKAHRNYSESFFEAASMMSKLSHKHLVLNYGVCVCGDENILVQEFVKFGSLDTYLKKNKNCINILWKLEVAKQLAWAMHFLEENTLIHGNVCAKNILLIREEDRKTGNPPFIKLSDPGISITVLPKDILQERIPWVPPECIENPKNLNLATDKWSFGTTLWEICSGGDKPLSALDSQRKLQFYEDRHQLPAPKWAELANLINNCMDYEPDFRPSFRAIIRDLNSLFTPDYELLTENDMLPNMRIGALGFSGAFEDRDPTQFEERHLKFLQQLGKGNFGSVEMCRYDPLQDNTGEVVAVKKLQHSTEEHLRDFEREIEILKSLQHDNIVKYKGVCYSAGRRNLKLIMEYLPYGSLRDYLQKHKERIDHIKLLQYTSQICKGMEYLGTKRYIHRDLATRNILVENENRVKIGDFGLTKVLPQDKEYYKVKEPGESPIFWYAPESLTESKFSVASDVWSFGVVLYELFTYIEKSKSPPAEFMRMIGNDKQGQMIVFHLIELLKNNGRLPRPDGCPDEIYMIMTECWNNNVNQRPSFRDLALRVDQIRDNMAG

Ki (JAK2) [nM]	EC50 ([1]; Homo sapiens, PBMC, 20 min) [nM]	Ki (TYK2) [nM]	EC50 ([2]; Homo sapiens, PBMC, 0.5 h) [nM]	EC50 ([1]; 20 minutes) [nM]	EC50 [2] [nM]	Structure (SMILES)
0.1 to 10	> 2000	0.1 to 10	100 to 2000	–	–	CO[C@@H]1CCN(c2ccn(-c3cc(-c4c(F)cccc4C#N)nc4c3C(=O)NC4)n2)C[C@H]1O [I-193, 3-fluoro-2-(4-(3-((3R,4R)-3-hydroxy-4-methoxypiperidin-1-yl)-1H-pyrazol-1-yl)-5-oxo-6,7-dihydro-5H-pyrrolo[3,4-b]pyridin-2-yl)benzonitrile]
0.1 to 10	100 to 2000	0.1 to 10	30 to 100	–	–	CO[C@@H]1CN(c2ccn(-c3cc(-c4c(F)cccc4C#N)nc4c3C(=O)NC4)n2)CC[C@H]1O [I-195, 3-fluoro-2-(4-(3-((3R,4R)-4-hydroxy-3-methoxypiperidin-1-yl)-1H-pyrazol-1-yl)-5-oxo-6,7-dihydro-5H-pyrrolo[3,4-b]pyridin-2-yl)benzonitrile]
0.1 to 10	100 to 2000	0.1 to 10	30 to 100	–	–	[2H]C([2H])([2H])C1(O)C([2H])([2H])N(c2ccn(-c3cc(-c4c(F)cccc4C#N)nc4c3C(=O)NC4)n2)C([2H])([2H])C1([2H])[2H] (stereo not shown) [I-196, 3-fluoro-2-(4-(3-(3-hydroxy-3-(methyl-d3)pyrrolidin-1-yl-2,2,4,4,5,5-d6)-1H-pyrazol-1-yl)-5-oxo-6,7-dihydro-5H-pyrrolo[3,4-b]pyridin-2-yl)benzonitrile]
10 to 100	> 2000	0.1 to 10	100 to 2000	–	–	N#Cc1cccc(F)c1-c1cc(-n2ccc(N3CC[C@](O)(C(=O)N4CCCC4)C3)n2)c2c(n1)CNC2=O [I-198, (R)-3-fluoro-2-(4-(3-(3-hydroxy-3-(pyrrolidine-1-carbonyl)-pyrrolidin-1-yl)-1H-pyrazol-1-yl)-5-oxo-6,7-dihydro-5H-pyrrolo[3,4-b]pyridin-2-yl)benzonitrile]
10 to 100	100 to 2000	0.1 to 10	30 to 100	–	–	[2H]C1([2H])NC(=O)c2c(-n3ccc(N4C([2H])([2H])CC(O)(C([2H])([2H])[2H])C4([2H])[2H])n3)cc(-c3c(F)cccc3C#N)nc21 (stereo not shown) [I-200, 3-fluoro-2-(4-(3-(3-hydroxy-3-(methyl-d3)pyrrolidin-1-yl-2,2,5,5-d4)-1H-pyrazol-1-yl)-5-oxo-6,7-dihydro-5H-pyrrolo[3,4-b]pyridin-2-yl-7,7-d2)benzonitrile]
10 to 100	–	0.1 to 10	–	100 to 2000	30 to 100	CO[C@@H]1CN(c2ccn(-c3cc(-c4c(F)cccc4C#N)nc4c3C(=O)NC4)n2)CC[C@H]1O [I-201, 3-fluoro-2-(4-(3-((3R,4R)-4-hydroxy-3-methoxypiperidin-1-yl)-1H-pyrazol-1-yl)-5-oxo-6,7-dihydro-5H-pyrrolo[3,4-b]pyridin-2-yl)benzonitrile]
10 to 100	100 to 2000	0.1 to 10	30 to 100	–	–	CO[C@H]1CN(c2ccn(-c3cc(-c4c(F)cccc4C#N)nc4c3C(=O)NC4)n2)CC[C@@H]1O [I-202, 3-fluoro-2-(4-(3-((3S,4S)-4-hydroxy-3-methoxypiperidin-1-yl)-1H-pyrazol-1-yl)-5-oxo-6,7-dihydro-5H-pyrrolo[3,4-b]pyridin-2-yl)benzonitrile]
10 to 100	100 to 2000	0.1 to 10	30 to 100	–	–	[2H]C1([2H])N(c2ccn(-c3cc(-c4c(F)cccc4C#N)nc4c3C(=O)NC4)n2)C([2H])([2H])C([2H])([2H])C([2H])(O)C1([2H])[2H] [I-203, 3-fluoro-2-(4-(3-(4-hydroxypiperidin-1-yl-2,2,3,3,4,5,5,6,6-d9)-1H-pyrazol-1-yl)-5-oxo-6,7-dihydro-5H-pyrrolo[3,4-b]pyridin-2-yl)benzonitrile]
10 to 100	> 2000	0.1 to 10	30 to 100	–	–	CC1(C)[C@H](O)CCN1c1ccn(-c2cc(-c3c(F)cccc3C#N)nc3c2C(=O)NC3)n1 [I-204, (R)-3-fluoro-2-(4-(3-(3-hydroxy-2,2-dimethylpyrrolidin-1-yl)-1H-pyrazol-1-yl)-5-oxo-6,7-dihydro-5H-pyrrolo[3,4-b]pyridin-2-yl)benzonitrile]
10 to 100	100 to 2000	0.1 to 10	30 to 100	–	–	CC1(C)[C@@H](O)CCN1c1ccn(-c2cc(-c3c(F)cccc3C#N)nc3c2C(=O)NC3)n1 [I-205, (S)-3-fluoro-2-(4-(3-(3-hydroxy-2,2-dimethylpyrrolidin-1-yl)-1H-pyrazol-1-yl)-5-oxo-6,7-dihydro-5H-pyrrolo[3,4-b]pyridin-2-yl)benzonitrile]
10 to 100	100 to 2000	0.1 to 10	30 to 100	–	–	[2H]C1([2H])NC(=O)c2c(-n3ccc(N4C([2H])([2H])C[C@@](O)(C([2H])([2H])[2H])C4([2H])[2H])n3)cc(-c3c(F)cccc3C#N)nc21 [I-206, (S)-3-fluoro-2-(4-(3-(3-hydroxy-3-(methyl-d3)pyrrolidin-1-yl-2,2,5,5-d4)-1H-pyrazol-1-yl)-5-oxo-6,7-dihydro-5H-pyrrolo[3,4-b]pyridin-2-yl-7,7-d2)benzonitrile]
10 to 100	100 to 2000	0.1 to 10	30 to 100	–	–	[2H]C1([2H])NC(=O)c2c(-n3ccc(N4C([2H])([2H])C[C@](O)(C([2H])([2H])[2H])C4([2H])[2H])n3)cc(-c3c(F)cccc3C#N)nc21 [I-207, (R)-3-fluoro-2-(4-(3-(3-hydroxy-3-(methyl-d3)pyrrolidin-1-yl-2,2,5,5-d4)-1H-pyrazol-1-yl)-5-oxo-6,7-dihydro-5H-pyrrolo[3,4-b]pyridin-2-yl-7,7-d2)benzonitrile]
10 to 100	> 2000	0.1 to 10	100 to 2000	–	–	[2H]C1([2H])N(c2ccn(-c3cc(-c4c(F)cccc4C#N)nc4c3C(=O)NC4)n2)C([2H])([2H])[C@]([2H])(O)C1([2H])[2H] [I-208, (R)-3-fluoro-2-(4-(3-(3-hydroxypyrrolidin-1-yl-2,2,3,4,4,5,5-d7)-1H-pyrazol-1-yl)-5-oxo-6,7-dihydro-5H-pyrrolo[3,4-b]pyridin-2-yl)benzonitrile]
10 to 100	> 2000	0.1 to 10	100 to 2000	–	–	[2H]C1([2H])N(c2ccn(-c3cc(-c4c(F)cccc4C#N)nc4c3C(=O)NC4)n2)C([2H])([2H])[C@@]([2H])(O)C1([2H])[2H] [I-209, (S)-3-fluoro-2-(4-(3-(3-hydroxypyrrolidin-1-yl-2,2,3,4,4,5,5-d7)-1H-pyrazol-1-yl)-5-oxo-6,7-dihydro-5H-pyrrolo[3,4-b]pyridin-2-yl)benzonitrile]
10 to 100	100 to 2000	0.1 to 10	30 to 100	–	–	CO[C@H]1CCN(c2ccn(-c3cc(-c4c(F)cccc4C#N)nc4c3C(=O)NC4)n2)C[C@@H]1O [I-210, 3-fluoro-2-(4-(3-((3S,4S)-3-hydroxy-4-methoxypiperidin-1-yl)-1H-pyrazol-1-yl)-5-oxo-6,7-dihydro-5H-pyrrolo[3,4-b]pyridin-2-yl)benzonitrile]
10 to 100	–	0.1 to 10	–	> 2000	100 to 2000	CO[C@@H]1CCN(c2ccn(-c3cc(-c4c(F)cccc4C#N)nc4c3C(=O)NC4)n2)C[C@H]1O [I-211, 3-fluoro-2-(4-(3-((3R,4R)-3-hydroxy-4-methoxypiperidin-1-yl)-1H-pyrazol-1-yl)-5-oxo-6,7-dihydro-5H-pyrrolo[3,4-b]pyridin-2-yl)benzonitrile]
